Experimental data published in the OPERA property sets (Mansouri et al. 2018).

SMILES	logP
COC(=O)Nc1ccc(C)cc1	2.29
COC(=O)Nc1ccccc1Cl	2.16
COC(=O)Nc1ccc(OC)cc1	1.73
COC(=O)Nc1ccccc1F	1.66
COC(=O)Nc1ccccc1OC	1.84
CCc1cccc(NC(=O)OC)c1	2.74
COC(=O)Nc1cccc(I)c1	3.03
CCOc1ccc(NC(=O)OC(C)C)cc1OCC	2.91
COC(=O)Nc1cccc(C)c1	2.29
COC(=O)Nc1ccc(C#N)cc1	1.82
COC(=O)Nc1ccccc1C(F)(F)F	2.09
COC(=O)Nc1ccccc1C	1.69
CCCCc1ccc(NC(=O)OC)cc1	3.69
COC(=O)Nc1ccc(Cl)cc1	2.55
COC(=O)Nc1ccccc1I	2.44
COC(=O)Nc1cccc(Br)c1	2.75
COC(=O)Nc1cccc([N+](=O)[O-])c1	2
COC(=O)Nc1ccccc1[N+](=O)[O-]	2.1
COC(=O)Nc1ccc([N+](=O)[O-])cc1	2.12
CCc1ccc(NC(=O)OC)cc1	2.72
CCOc1ccccc1NC(=O)OC	2.43
COC(=O)Nc1cccc(C(F)(F)F)c1	2.74
COC(=O)Nc1cccc(C(C)=O)c1	1.63
COC(=O)Nc1cccc(C#N)c1	1.77
COC(=O)Nc1ccccc1	1.75
COC(=O)Nc1ccc(F)cc1	1.95
COC(=O)Nc1ccccc1Br	2.3
COC(=O)Nc1cccc(OC)c1	1.92

Further lines, results first:

logP	SMILES
2.27	CCOc1ccc(NC(=O)OCCOC)cc1OCC
2.68	C#CCOC(=O)Nc1ccc(OCC)c(OCC)c1
3.29	CCOc1ccc(NC(=O)OCc2ccccc2)cc1OCC
2.54	CCOC(=O)Nc1ccc(OCC)c(OCC)c1
2.75	C=CCOC(=O)Nc1ccc(OCC)c(OCC)c1
3.5	CCOc1ccc(NC(=O)OC(CBr)CBr)cc1OCC
2.1	CCOc1ccc(NC(=O)OC)cc1OCC
2.15	CCOc1ccc(NC(=O)OC)cc1
3.36	CCOc1ccc(NC(=O)OCC(C)C)cc1OCC
3.46	CCCCOC(=O)Nc1ccc(OCC)c(OCC)c1
2.07	CCOc1ccc(NC(=O)OCCC#N)cc1OCC
2.31	CCOc1cccc(NC(=O)OC)c1
2.93	CCCOC(=O)Nc1ccc(OCC)c(OCC)c1
